Marks after values point to notes of the source that are not given here.
Tested on: C57Bl/6 male mice on a high fat diet (HFD)
Assay: High-fat diet (HFD) mice treated with CL2-57
Assay type: in vivo, mouse
Protocol: High-Fat Diet and Drug Treatment. C57Bl/6 male mice (Jackson Laboratories) were placed on a high fat diet (HFD) (60% kcal from fat, Envigo) at 5 weeks. At 10 weeks, mice were acclimated to hydrogel replacement of drinking water (Clear H2O) for 3 days. Then, for six weeks while HFD continued, mice received 10 mg/kg CL2-57 oral gavage Mon/Wed/Fri (vehicle: 9.5% PEG-200, 5% DMSO, 0.1% polysorbate 80 in water) plus 10 mg/kg/day CL2-57 in continuous hydrogel, or vehicle control. Mice were weighed weekly. For fast-refed studies, mice fasted for 16 hours, then refed for 4 hours. Blood glucose was measured with handheld glucometer. Sample size, chosen based on previous experience with glucose tolerance test, was ten mice per treatment. Mice were assigned to treatment groups by cage randomization upon arrival from Jackson Laboratories. Mice were assigned a unique ear tag number to enable blinded tissue analysis and data collection. Treatment and in vivo experimentation were not blinded. No animals were excluded from analysis, and no control for confounders such as cage location or treatment order was performed.
Plasma/Liver Triglycerides. Blood was collected in EDTA-coated tubes (Becton Dickinson) and centrifuged (3500 rpm, 15 minutes) to separate plasma. Livers were flash frozen in liquid nitrogen, then stored at −80° C. until homogenization in isopropanol. Triglyceride levels were measured using reagents from Wako Diagnostics per manufacturer's protocol.
Glucose Tolerance Test (GTT). After 16-hour fast, animals were administered 1.5 g/kg body weight (bwt) glucose by intraperitoneal (i.p.) injection. Glucose in tail vein blood was measured at 0, 10, 20, 30, 45, 60, and 120 minutes using a ONETOUCH® […]® glucometer (LifeScan, Inc). Additional blood was collected at multiple points between 0-30 minutes in heparinized capillary tubes and centrifuged, with plasma insulin levels determined by ELISA (ALPCO).
Insulin Sensitivity Studies. Mice were injected with 1 U/kg bwt HUMALOG® insulin or vehicle (n=3 of each per treatment group) 15 minutes before sacrifice. Liver, subcutaneous fat, and gastrocnemius were collected and homogenized in lysis buffer (50 mM Tris-HCl (pH 7.4), 100 mM NaCl, 1 mM EDTA, 1 mM EGTA, 1% Triton™ X-100, with protease/phosphatase inhibitor (Complete, Roche)). Protein concentration was determined using Bradford reagent (Bio-Rad). Denatured protein (30 μg) was separated by SDS-PAGE (Mini-PROTEAN® TGX™ Gels 10%, Bio-Rad) and transferred to 0.45 μm nitrocellulose membranes. Membranes were blocked with 5% skim milk in TBST (1×TBS+0.1% polysorbate 20) for 1 hour, incubated with primary antibodies overnight at 4° C., washed with TBST, and incubated with horseradish peroxidase (HRP)-linked secondary antibodies for 1 hour. After TBST wash, Clarity™ Western ECL Substrate (Bio-Rad) was added. Blots were imaged and analyzed using a ChemiDoc™ MP and Image Lab Ver 6.0 (Bio-Rad). Protein levels were normalized to GAPDH (muscle) or β-actin (liver, adipose) for quantification. Primary antibodies: Cell Signaling Technology 4060 (pS473Akt, RRID:AB_2315049), 13038 (pT308Akt, RRID:AB_2629447), 4691 (pan-Akt, RRID:AB_915783), 5174 (GAPDH, RRID:AB 10622025) and Sigma A2228 (3-actin, RRID:AB_476697).
qRT-PCR. For cell samples, treated cells were lysed with RLT plus lysis buffer (Qiagen). RNA was isolated with Qiagen RNEASY® Plus columns per manufacturer instructions, then reverse-transcribed to cDNA using […]® III Reverse Transcriptase (200 U/μL, Invitrogen) per supplier protocol. qPCR experiments were either performed with TAQMAN® gene expression master mix (Invitrogen) on a StepOne™ qPCR instrument or with […]® SYBR® Green SuperMix (Quanta Biosciences) on CFX Connect™ Real-Time PCR Detection System (BioRad), with fold-change quantified by ΔΔCt. […]

[1] = HFD mice, compared to vehicle control
[2] = plasma, fold change with CL2-57 vs. vehicle in HFD mice

With CCOC(=O)c1cccc(NC(=O)c2sc(Cl)cc2S(=O)(=O)N(C)c2ccc(OCC)c(OCC)c2)c1 [CL2-57, ethyl 3-(5-chloro-3-(N-(3,4-diethoxyphenyl)-N-methylsulfamoyl)thiophene-2-carboxamido) benzoate] the “Attenuation of HFD increases of plasma proinflammatory lipid mediators (lysophospholipids)” value (HFD mice) was 20-60%, the “Brown adipose or liver mass” value (HFD mice) was “no change” and the “Fall of liver mRNA encoding PPARα” value (HFD mice) was 75%. The Gluconeogenic metabolites (HFD mice) was “reduced”, the “HFD increase of NO precursors arginine and guanidinosuccinate” value (HFD mice) was “reversed” and the “HFD-increased liver oxysterol metabolites 7-hydroxycholesterol and 4-cholesten-3-one” value (HFD mice) was “reversed”. The “Insulin secretion during the first 20 minutes of the GTT” value (HFD mice) was “negligible change”, the “Liver Abcg1 expression” value (HFD mice) was “unchanged” and the “Liver Abcg5 expression” value (HFD mice) was “significantly reduced”. The “Liver Cyp7-a1 mRNA” value (HFD mice) was “diminishing trend”, the “Liver Lpcat3 expression” value (HFD mice) was “significantly reduced” and the “Liver Scd1 expression” value (HFD mice) was “significantly reduced”. The “Liver Srebf1 mRNA” value (HFD mice) was “small increase”, the “Liver cholesterol (reduced in HFD mice)” value (HFD mice) was “normalized to baseline” and the “Liver free fatty acid (FFA) concentrations reduced by” value (HFD mice) was 40-90%. For the same compound, the “Plasma FFAs decreased” value (HFD mice) was 5-20%, the “Plasma levels of cholesterol and oxysterol metabolites” value (HFD mice) was “unaffected” and the “Tissue mass composition by TD-NMR” value (HFD mice) was “shifted tissue mass from fat to lean”. For the same compound, the “Circulating arachidonic acid (AA) increase over diet controls” value (HFD mice treated with CL2-57, vehicle 120%) was 37%, the “Blood glucose concentrations following single i.p. glucose injection” value (HFD mice, GTT, vs vehicle) was “lower” and the “Glucose tolerance test, total area under the curve reduced by” value (HFD mice, after five weeks, 2-hour test) was 20%. For the same compound, the “Decrease in plasma TGs” value [1] was 25%, the “Decrease of liver G6PC expression” value [1] was 73% and the “Decrease of liver Pck1 expression” value [1] was 70%. For the same compound, the “HFD increases of the four gluconeogenic precursors, in particular glutamine and glycerol” value [1] was “attenuated”, the “Liver triglycerides (TGs) reduced by” value [1] was 35% and the “Fasting/refed glucose and insulin levels” value (HFD mice, initially) was “Little change”. The “Adipose Akt phosphorylation” value (HFD mice, insulin challenge) was “No treatment effect”, the “Liver Akt phosphorylation at Ser473 with insulin” value (HFD mice, insulin challenge) was “did not change” and the “Liver Akt phosphorylation at Thr308 with insulin” value (HFD mice, insulin challenge) was “increased”. The “Skeletal muscle insulin sensitivity versus vehicle” value (HFD mice, insulin challenge) was “dramatically increased”, the “Mature, nuclear form of SREBP1c protein” value (HFD mice, liver) was “unchanged” and the “Uncleaved, endoplasmic reticulum form of SREBP1c protein” value (HFD mice, liver) was “corresponding increase”. The “mRNA levels of proinflammatory enzymes, cytokines and chemokines (COX2, NOS2, TNFα, IL-6, CCL2, CXCL10)” value (HFD mice, liver and adipose) was “substantially lowered”, the “Liver ABCA1 protein” value (HFD mice, liver homogenates) was “increased” and the “Liver Abca1 expression” value (HFD mice, liver homogenates) was “increased”. For the same compound, the Lean tissue mass (HFD mice, on average) was “gained”, the Weight gain (HFD mice, over six weeks, vehicle 17%) was 8 % of baseline and the “White adipose tissue mass reduced by, proportional to body weight” value (HFD mice, visceral (renal) and superficial (inguinal) fat pads) was over 20%. For the same compound, the “Liver monoacylglycerols (MAGs) decreased” value (compared to HFD alone) was 83-97%, the “Creatinine, urea, and bilirubin” value (markers of global inflammation and/or organ toxicity) was “unaffected” and the “1-Arachidonoyl-GPA (20:4), HED Drug/ Chow Veh” value [2] was 0.65^†. For the same compound, the “1-Arachidonoyl-GPC (20:4n6), HED Drug/ Chow Veh” value [2] was 0.73^††, the “1-Arachidonoyl-GPE (20:4n6), HED Drug/ Chow Veh” value [2] was 0.73^†† and the “1-Arachidonoyl-GPI (20:4), HED Drug/ Chow Veh” value [2] was 0.75^†. The “1-Lignoceroyl-GPC (24:0), HED Drug/ Chow Veh” value [2] was 0.99, the “1-Linolenoyl-GPC (18:3), HED Drug/ Chow Veh” value [2] was 0.85 and the “1-Linoleoyl-GPA (18:2), HED Drug/ Chow Veh” value [2] was 0.57^††. For the same compound, the “1-Linoleoyl-GPC (18:2), HED Drug/ Chow Veh” value [2] was 0.81^†, the “1-Linoleoyl-GPE (18:2), HED Drug/ Chow Veh” value [2] was 0.81 and the “1-Linoleoyl-GPG (18:2), HED Drug/ Chow Veh” value [2] was 0.75^†. The “1-Linoleoyl-GPI (18:2), HED Drug/ Chow Veh” value [2] was 0.72, the “1-Linoleoyl-GPS (18:2), HED Drug/ Chow Veh” value [2] was 0.39^†† and the “1-Oleoy1-GPI (18:1), HED Drug/ Chow Veh” value [2] was 0.58^†. For the same compound, the “1-Oleoyl-GPC (18:1), HED Drug/ Chow Veh” value [2] was 0.84, the “1-Oleoyl-GPE (18:1), HED Drug/ Chow Veh” value [2] was 0.79 and the “1-Oleoyl-GPS (18:1), HED Drug/ Chow Veh” value [2] was 0.62^†. The “1-Palmitoleoyl-GPC (16:1), HED Drug/ Chow Veh” value [2] was 0.81, the “1-Palmitoyl-GPA (16:0), HED Drug/ Chow Veh” value [2] was 0.64^†† and the “1-Palmitoyl-GPC (16:0), HED Drug/ Chow Veh” value [2] was 0.83^†. The “1-Palmitoyl-GPE (16:0), HED Drug/ Chow Veh” value [2] was 0.95, the “1-Palmitoyl-GPI (16:0), HED Drug/ Chow Veh” value [2] was 0.56^†† and the “1-Palmitoyl-GPS (16:0), HED Drug/ Chow Veh” value [2] was 0.77. The “1-Stearoyl-GPC (18:0), HED Drug/ Chow Veh” value [2] was 0.94, the “1-Stearoyl-GPE (18:0), HED Drug/ Chow Veh” value [2] was 0.91 and the “1-Stearoyl-GPI (18:0), HED Drug/ Chow Veh” value [2] was 0.82. For the same compound, the “2-Palmitoleoyl-GPC (16:1), HED Drug/ Chow Veh” value [2] was 1.08, the “2-Palmitoyl-GPC (16:0), HED Drug/ Chow Veh” value [2] was 0.81 and the “2-Stearoyl-GPE (18:0), HED Drug/ Chow Veh” value [2] was 0.74^††. For the same compound, the “Docosahexaenoate (DPA; 22:6n3), HED Drug/ Chow Veh” value [2] was 0.76, the “Docosapentaenoate (n3 DPA; 22:5n3), HED Drug/ Chow Veh” value [2] was 0.60^† and the “Docosapentaenoate (n6 DPA; 22:5n6), HED Drug/ Chow Veh” value [2] was 0.92. The “Eicosapentaenoate (EPA; 20:5n3), HED Drug/ Chow Veh” value [2] was 0.60^†, the “Sphingadienine, HED Drug/ Chow Veh” value [2] was 0.55^†† and the “Sphinganine, HED Drug/ Chow Veh” value [2] was 0.67^††. For the same compound, the “Sphinganine-1-phosphate, HED Drug/ Chow Veh” value [2] was 0.73, the “Sphingosine, HED Drug/ Chow Veh” value [2] was 0.73 and the “Sphingosine-1-phosphate, HED Drug/ Chow Veh” value [2] was 0.93.
